According to publication PMC2751796 (Pharmacology & therapeutics, 2009):
Where two headings read alike, the source gives them in different places.

Assays:
[1] = test system: hPXR; settings: ref Bauer et al., 2006, cited from earlier work
[2] = test system: MRPs, organic anion transporters; settings: cited from earlier work
[3] = ref Heideman et al., 1986; cited from earlier work
[4] = biological target: rOAT3; settings: inhibition of rOAT3-mediated 6-mercaptopurine transport; ref Mori et al., 2004; cited from earlier work
[5] = cited from earlier work
[6] = mice, 50 mg/kg, PO; ref Hubensack et al., 2008; cited from earlier work
[7] = test system: P-gp; settings: 150 mg, iv; ref Kurnik et al., 2008; cited from earlier work
[8] = highest dose; ref Bankstahl et al., 2008; cited from earlier work
[9] = mouse, in vivo; cited from earlier work
[10] = test system: P-gp; settings: ref Passchier et al., 2003; cited from earlier work
[11] = test system: P-gp; settings: cited from earlier work
[12] = test system: P-gp; settings: rhesus monkey, 8 mg/kg; ref Zoghbi et al., 2008; cited from earlier work
[13] = test system: P-gp; parameters: species or system human; settings: at 5.6 μM cyclosporine blood concentration
[14] = test system: Ent1; settings: mice; ref Lepist et al., 2008; cited from earlier work
[15] = test system: P-gp and BCRP; settings: ref de Vries et al., 2007; cited from earlier work
[16] = test system: P-gp; settings: AUC, cited from earlier work
[17] = test system: Bcrp; settings: ref de Vries et al., 2007; cited from earlier work
[18] = test system: P-gp; settings: ref de Vries et al., 2007; cited from earlier work
[19] = test system: Bcrp; settings: cited from earlier work
[20] = test system: Mrp2; settings: ref Potschka et al., 2003; cited from earlier work
[21] = intraventricularly injected, ref Bode et al., 1980
[22] = Elacridar (50 and 100 mg/kg, PO), ref de Vries et al., 2007

Question: For CO[C@H]1/C=C/O[C@@]2(C)Oc3c(C)c(O)c4c(O)c(c(/C=N/N5CCN(C)CC5)c(O)c4c3C2=O)NC(=O)/C(C)=C\C=C\[C@H](C)[C@H](O)[C@@H](C)[C@@H](O)[C@@H](C)[C@H](OC(C)=O)[C@@H]1C [Rifampin], which “Predicted average steady state unbound plasma concentration” value ([1]; 50 mg/kg, oral, for 3 days) is on record?
Answer: 0.34 µg/mL

Question: With Sc1ncnc2nc[nH]c12 [6-mercaptopurine] as the molecule, how does the “Increase of brain-to-plasma concentration ratio with probenecid in rats” value ([2]; ref Deguchi et al., 2000) read?
Answer: up to 4.4 fold

Question: For CN(Cc1cnc2nc(N)nc(N)c2n1)c1ccc(C(=O)N[C@@H](CCC(=O)O)C(=O)O)cc1 [Methotrexate], which “CNS distribution in untreated subjects (ventricular CSF / plasma AUC ratio)” value [3] is on record?
Answer: 0.02 (ventricular CSF / plasma AUC ratio)

Question: And the “Ki relative to estimated brain concentration in patients receiving chemotherapy” value [4]?
Answer: 17.5 fold

Question: What about the “Increase of CSF concentrations by probenecid” value ([5]; 4 patients, ref Howell et al., 1979) of the same molecule?
Answer: 2.8 to 4.2 fold

Question: What about the “Effect of probenecid 1250 mg/m^2 daily on efflux kinetics” value [5, 21] of the same molecule?
Answer: did not change

Question: And the “Extension of terminal half life (CSF) by probenecid 2500 mg/m^2” value [5, 21]?
Answer: up to 53%

Question: And the “CSF concentrations with vincristine vs. monotherapy” value ([5]; patient with lymphoma, ref Tejada & Zubrod, 1979)?
Answer: 2.5 fold

Question: What about the “Effect of vindesine on CSF concentration” value ([5]; ref Tubiana et al., 1985) of the same molecule?
Answer: did not affect

Question: Which results are given for COc1cc2c(cc1OC)CN(CCc1ccc(NC(=O)c3cc(OC)c(OC)cc3NC(=O)c3cnc4ccccc4c3)cc1)CC2 [Tariquidar]?
Answer: Inhibitor concentration (brain) [6]: 3-9 nmol/g (brain) (∼2-fold greater in plasma); Inhibition of lymphocyte P-gp activity [7]: completely inhibited; Tariquidar blood concentration [8]: 1402 ng/mL; Tariquidar brain concentration [8]: 4131 ng/mL

Question: Which “Brain uptake ratio in WT, untreated mice” value [9] does the source give for CCC1(c2ccccc2)C(=O)NC(=O)NC1=O [Phenobarbital] here?
Answer: ∼ 0.27-0.4

Question: Which results are given for CN([11CH3])C(=O)C(CCN1CCC(O)(c2ccc(Cl)cc2)CC1)(c1ccccc1)c1ccccc1 [[^11C]-Loperamide]?
Answer: Increase in brain radioactivity with cyclosporine in pigs [10]: up to 7 fold; Increase in distribution of radioactivity at the human BBB on P-gp inhibition ([11]; data obtained so far): ~100%; Increase of brain [^11C]-loperamide with cyclosporine in humans ([11]; intravenous infusion 10 mg/kg/2 hr, ref Passchier et al., 2008): ~110%; Increase in plasma radioactivity with DCPQ [12]: 16%; Predicted increase in CNS distribution in humans [13]: 56-412%

Question: For OC[C@H]1O[C@@H](n2cnc3c(N[C@@H]4CCOC4)ncnc32)[C@H](O)[C@@H]1O [tecadenoson], which “Decrease in brain AUC with nitrobenzyl-mercaptopurine ribonucleoside” value [14] is on record?
Answer: 2.5 fold

Question: Which “Decrease of antinociceptive effect after rifampin” value ([1]; hPXR transgenic mice, vs. vehicle) does the source give for CCC(=O)C(CC(C)N(C)C)(c1ccccc1)c1ccccc1 (centres unmarked) [methadone] here?
Answer: 70%

Question: For CC[C@@]1(O)C(=O)OCc2c1cc1n(c2=O)Cc2cc3c(CN(C)C)c(O)ccc3nc2-1 [Topotecan], which “Increase of brain-to-plasma AUC ratio in Mdr1a/b-/-/Bcrp-/- mice” value [15] is on record?
Answer: 3.2 fold

Question: And the “Fold change in brain uptake ratio in inhibitor-treated vs. control mice” value [16, 22]?
Answer: 1.6 fold

Question: What about the “Fold change in brain uptake ratio in inhibitor-treated vs. control mice (value corrected for drug in vasculature)” value [16, 22] of the same molecule?
Answer: 1.7 fold

Question: What about the “Fold change in brain uptake ratio in inhibitor-treated vs. control mice” value ([16]; Gefitinib (200 mg/kg, PO), microdialysis, ref Zhuang et al., 2006) of the same molecule?
Answer: 1.7 ^b, AUC fold

Question: What about the “Brain-to-plasma AUC ratio in Bcrp-/- mice compared to WT controls” value [17] of the same molecule?
Answer: not different

Question: And the “Brain-to-plasma AUC ratio in Mdr1a/b-/- mice compared to WT controls” value [18]?
Answer: two times higher

Question: And the “Increase of oral bioavailability with elacridar in Mdr1a/b-/- mice” value ([19]; ref Jonker et al., 2000)?
Answer: more than 6 fold

Question: What about the “Increase of placental transfer with elacridar in Mdr1a/b-/- mice” value ([19]; ref Jonker et al., 2000) of the same molecule?
Answer: > 2 fold

Question: And the “Increase of brain distribution with elacridar in Mdr1a/b-/- mice” value ([19]; ref de Vries et al., 2007)?
Answer: 1.6 fold

Question: With O=C1NC(=O)C(c2ccccc2)(c2ccccc2)N1 [Phenytoin] as the molecule, how does the “Extracellular concentrations and anticonvulsant activity vs. rats that do not lack Mrp2” value [20] read?
Answer: two-fold greater

Question: What about the “Enhancement of brain penetration and anticonvulsant activity by probenecid” value ([2]; ref Potschka et al., 2003) of the same molecule?
Answer: up to two-fold
